Usually EC50 stands for the concentration giving half of the maximal effect. One may read the IC50 as the midpoint of a concentration-inhibition curve.

Results on five compounds are retold here after publication PMC7307906, “Macrocyclic Modalities Combining Peptide Epitopes and Natural Product Fragments” (Journal of the American Chemical Society, 2020).

Test [1] has as its target T1, human MC3R (Homo sapiens, UniProt P41968).
T1 construct: expressed in transfected cells
The test can be described thus: cAMP assay (LANCE) in T-Rex-293 cells expressing MC3R. The class given is cell-based. Particulars: cAMP assay; mean (± SEM) of at least three independent experiments; read-out: EC50 hMC3R cAMP. For orientation: Cyclic AMP is a second messenger, typically raised through Gs and lowered through Gi signalling.

The target in test [2] is T2, human MC4R (Homo sapiens, UniProt P32245).
T2 construct: expressed in transfected cells
T2 sequence (P32245 whole entry): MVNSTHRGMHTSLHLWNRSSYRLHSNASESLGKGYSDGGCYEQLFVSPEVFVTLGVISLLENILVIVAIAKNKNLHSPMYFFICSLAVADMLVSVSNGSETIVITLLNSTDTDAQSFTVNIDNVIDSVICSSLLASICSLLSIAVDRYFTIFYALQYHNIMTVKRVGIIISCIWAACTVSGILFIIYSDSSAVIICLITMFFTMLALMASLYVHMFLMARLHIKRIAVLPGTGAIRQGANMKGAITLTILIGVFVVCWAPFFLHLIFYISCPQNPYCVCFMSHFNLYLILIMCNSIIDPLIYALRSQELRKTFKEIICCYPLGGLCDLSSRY
The test can be described thus: Melanocortin receptor radioligand binding (SPA, [125I]-NDP-α-MSH displacement), MC4R. Particulars: competitive binding, mean (± SEM) of at least three independent experiments, read-out: IC50 hMC4R binding.

The target of test [3] is T1, human MC3R. Kind of test: Melanocortin receptor radioligand binding (SPA, [125I]-NDP-α-MSH displacement), MC3R. Particulars: competitive binding, mean (± SEM) of at least three independent experiments, read-out: IC50 hMC3R binding.
Test [4] has as its target T3, human MC5R (Homo sapiens, UniProt P33032).
T3 construct: expressed in transfected cells; host or cells: HEK293-6E suspension cells, transient expression; membranes
The test can be described thus: Melanocortin receptor radioligand binding (SPA, [125I]-NDP-α-MSH displacement), MC5R. Particulars: competitive binding, [125I]-NDP-α-MSH; mean (± SEM) of at least three independent experiments; read-out: IC50 hMC5R binding.

Test [5] concerns the target T4, human MC1R (Homo sapiens, UniProt Q01726).
T4 construct: expressed in transfected cells
Kind of test: cAMP assay (LANCE) in T-Rex-293 cells expressing MC1R. The class given is cell-based. Particulars: for Emax: T-REx-293, read-out: % Effect hMC1R cAMP; for EC50: cAMP assay, mean (± SEM) of at least three independent experiments, read-out: EC50 hMC1R cAMP.

Test [6] concerns the target T4, human MC1R. Kind of test: Melanocortin receptor radioligand binding (SPA, [125I]-NDP-α-MSH displacement), MC1R. The conditions noted are these: competitive binding, mean (± SEM) of at least three independent experiments, read-out: IC50 hMC1R binding.
Test [7] deals with T2, human MC4R. Kind of test: cAMP assay (LANCE) in T-Rex-293 cells expressing MC4R. The conditions noted are these: cAMP assay; mean (± SEM) of at least three independent experiments; read-out: EC50 hMC4R cAMP. The class given is cell-based.

T3 sequence (P33032 whole entry): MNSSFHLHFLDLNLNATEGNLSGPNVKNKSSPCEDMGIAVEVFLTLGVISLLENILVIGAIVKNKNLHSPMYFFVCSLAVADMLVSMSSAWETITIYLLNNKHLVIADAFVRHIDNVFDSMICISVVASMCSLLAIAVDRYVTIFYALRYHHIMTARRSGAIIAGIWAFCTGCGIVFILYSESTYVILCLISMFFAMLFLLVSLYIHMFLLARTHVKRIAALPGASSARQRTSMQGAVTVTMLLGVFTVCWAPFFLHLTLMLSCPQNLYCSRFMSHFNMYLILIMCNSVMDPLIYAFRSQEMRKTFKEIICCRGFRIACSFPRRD
T4 sequence (Q01726 whole entry): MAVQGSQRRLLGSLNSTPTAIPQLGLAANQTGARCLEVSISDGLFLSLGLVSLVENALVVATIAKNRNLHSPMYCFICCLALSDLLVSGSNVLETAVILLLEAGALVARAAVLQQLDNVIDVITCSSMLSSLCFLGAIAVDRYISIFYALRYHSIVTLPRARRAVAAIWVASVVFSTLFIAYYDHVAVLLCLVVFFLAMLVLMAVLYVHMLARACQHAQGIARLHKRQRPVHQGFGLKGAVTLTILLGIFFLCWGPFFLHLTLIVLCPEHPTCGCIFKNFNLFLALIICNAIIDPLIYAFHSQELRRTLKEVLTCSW
T1 sequence (P41968 whole entry): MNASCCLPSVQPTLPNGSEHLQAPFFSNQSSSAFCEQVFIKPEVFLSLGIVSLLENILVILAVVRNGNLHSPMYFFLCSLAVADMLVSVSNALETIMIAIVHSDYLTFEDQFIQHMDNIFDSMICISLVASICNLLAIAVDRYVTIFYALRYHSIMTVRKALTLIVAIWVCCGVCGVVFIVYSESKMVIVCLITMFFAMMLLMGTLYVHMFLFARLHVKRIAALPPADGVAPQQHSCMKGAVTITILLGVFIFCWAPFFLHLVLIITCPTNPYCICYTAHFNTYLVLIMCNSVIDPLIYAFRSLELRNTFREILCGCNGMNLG

For the compound `C[C@@H]1NC(=O)[C@H](CC(N)=O)NC(=O)[C@H](Cc2ccccc2)NC(=O)[C@H](Cc2ccccc2)NC(=O)[C@H](CCCNC(=N)N)NC(=O)[C@H](Cc2ccccc2)N(C)C(=O)[C@H]2N[C@@H](c3ccc(cc3)C(=O)NCCCC[C@@H](C(=O)N[C@@H](Cc3ccc(O)cc3)C(N)=O)NC1=O)[C@H]1C(=O)N(C)C(=O)[C@H]12` [F1-major*, [ I-FRFFNAK ]Y], the EC50 is over 100 µM in test [1], 14 ± 4 µM in test [5] and over 100 µM in test [7]. Also, the IC50 in test [2] is over 100 µM; in test [3], over 100 µM; in test [4], 49 ± 2 µM; in test [6] it was over 100 µM. Moreover, in test [5], the Emax turned out to be 31%.
Take `C[C@@H]1NC(=O)[C@H](CC(N)=O)NC(=O)[C@H](Cc2ccccc2)NC(=O)[C@H](Cc2ccccc2)NC(=O)[C@H](CCCNC(=N)N)NC(=O)[C@H](Cc2ccccc2)N(C)C(=O)[C@@H]2N[C@H](c3ccc(cc3)C(=O)NCCCC[C@@H](C(=O)N[C@@H](Cc3ccc(O)cc3)C(N)=O)NC1=O)[C@@H]1C(=O)N(C)C(=O)[C@@H]12` [F1-minor*, [ I-FRFFNAK ]Y]: the results for the EC50 in test [1], in test [5] and in test [7] were over 100 µM, 10 ± 1 µM and over 100 µM, respectively. The IC50 in test [2] turned out to be 57 ± 5 µM; in test [3], 80 ± 5 µM; in test [4], 16 ± 1 µM; in test [6], 65 ± 6 µM. Besides, the Emax in test [5] is 36%.
As for `C[C@@H]1NC(=O)[C@H](CC(N)=O)NC(=O)[C@H](Cc2ccccc2)NC(=O)[C@H](Cc2ccccc2)NC(=O)[C@H](CCCNC(=N)N)NC(=O)[C@H](Cc2ccccc2)N(C)C(=O)[C@H]2N[C@@H](c3ccc(cc3)C(=O)NCCCC[C@@H](C(=O)N[C@@H](Cc3ccc(O)cc3)C(N)=O)NC1=O)[C@H]1C(=O)N(c3ccccc3)C(=O)[C@H]12` [F2-minor, [ II-FRFFNAK ]Y], the results for the EC50 in test [1], in test [5] and in test [7] were over 100 µM, 9.3 ± 3.6 µM and over 100 µM, respectively. Also, the IC50 in test [2] is 91 ± 5 µM; in test [3], 85 ± 6 µM; in test [4], 6.5 ± 0.9 µM; in test [6], 81 ± 3 µM. Also, the Emax in test [5] stood at 40%.
Take `C[C@@H]1NC(=O)[C@H](CC(N)=O)NC(=O)[C@@H](Cc2ccccc2)NC(=O)[C@@H](Cc2ccccc2)NC(=O)[C@H](CCCNC(=N)N)NC(=O)[C@H](Cc2ccccc2)N(C)C(=O)[C@@H]2N[C@H](c3ccc(cc3)C(=O)NCCCC[C@@H](C(=O)N[C@@H](Cc3ccc(O)cc3)C(N)=O)NC1=O)[C@@H]1C(=O)N(C)C(=O)[C@@H]12` [G1-major, [I-FRffNAK ]Y]: the EC50 was over 10 µM in test [1], 1.8 ± 0.3 µM in test [5] and over 10 µM in test [7]. The IC50 in test [2], in test [3], in test [4] and in test [6] was over 10 µM each time. For the same compound, in test [5], the Emax worked out at 38%.
For `CN1C(=O)[C@@H]2[C@H](C1=O)[C@H]1N[C@@H]2c2ccc(cc2)C(=O)NCCCC[C@@H](C(=O)N[C@@H](Cc2ccc(O)cc2)C(N)=O)NC(=O)[C@H](CC(N)=O)NC(=O)[C@H](Cc2ccccc2)NC(=O)[C@H](Cc2ccccc2)NC(=O)[C@H](CCCNC(=N)N)NC(=O)[C@H](Cc2ccccc2)N(C)C1=O` [J1-major, [ I-FRFFNK ]Y], the EC50 in test [1] was over 100 µM; in test [5], 17 ± 5 µM; in test [7], over 100 µM. Besides, the IC50 in test [2] is over 100 µM; in test [3] it was over 100 µM; in test [4], 41 ± 9 µM; in test [6], over 100 µM. The Emax in test [5] worked out at 51%.
